System: in-vitro oral biofilms
Assay: Effect of treatment with active agents on the composition of in-vitro oral biofilms (Calgary Biofilm Device, 16S rRNA pyrosequencing)
Assay type: cell-based, oral bacteria
Text: An in-vitro oral biofilm model for oral care product evaluation has recently been developed using the commercially available Calgary Biofilm Device (CBD) (Ceri, Olson, Stremick, Read, Morck, Buret, J Clin Microbiol. (1999) June; 37(6):1771-6) seeded with a natural saliva inoculum (Kistler, Pesaro, Wade, BMC Microbiol. (2015) December; 15(1):364). The pegs of the CBD were coated in hydroxyapatite to provide a surface that was chemically similar to tooth enamel. […] In addition, the composition of the biofilms was reproducible when derived from saliva of the same individuals at different time points.
Approximately 5 ml of saliva was collected from each volunteer by expectoration into sterile universal tubes. The saliva samples were then pooled together in equal volumes. DNA was extracted from an aliquot of the pooled saliva and 200 μl was pipetted into each well of a microtitre plate, as required. The wells around the edge of the microplate were not used. The device lid, with 96 hydroxyapatite-coated pegs (to mimic teeth) was fitted so that the pegs were bathed in saliva. The CBD was then incubated for 18 hours at 37° C. in air+5% CO2 after which the lid was transferred to a new baseplate containing Brain Heart Infusion (BHI) broth (Fluka Analytical) supplemented with hog gastric mucin (1 g/L), haemin (10 mg/L), and vitamin K (0.5 mg/L). The growth medium was changed after every 3.5 days.
The active agents were prepared as follows: 5% or 7.5% stock solutions were made in absolute ethanol. The stock solutions were then diluted to working concentration in sterile PBS. Thymol was diluted down to a final concentration of 0.1% v/v and the composition according to the invention, comprising 95% carrier and 5% of the compound of formula A, was diluted to 0.15% v/v. The final test concentration of the compound of formula A was 0.0075 wt.-%.
At 7 days, biofilms were treated with the active agents or a negative PBS control. […]
The bacterial composition of the biofilms and saliva was determined using 454 pyrosequencing of partial 16S rRNA genes. […]

## Cc1ccc(C(C)C)c(O)c1 [Thymol]
Community membership (Jaccard index) and structure (thetaYC)
  PCoA clustering of treated biofilms relative to negative control: did not cluster separately
Richness of the biofilm community, treated twice daily for seven days, thymol 0.1% v/v, composition 0.15% v/v, 10 replicates
  Mean no. of OTUs (sd): 250.8
Summary statement
  Effect on the composition of in-vitro biofilms: did not have a significant effect
